The numbers were not newly measured in US20090317464A1, “METHODS AND COMPOSITIONS FOR PRODUCING ANTI-ANDROGENIC EFFECTS” (PANACEA BIOTEC LTD., priority 2006, published 2009), which cites them from elsewhere.

SMILES strings stand for the structures.

With `CC(O)(CS(=O)(=O)c1ccc(F)cc1)C(=O)Nc1ccc(C#N)c(C(F)(F)F)c1` (stereo not drawn) [Bicalutamide, 4-cyano-3-trifluoromethyl-N-(3-p-fluorophenylsulphony 1-2-hydroxy-2-methylpropionyl) aniline], under “daily administration to patients, above 300 mg, studied at 450 and 600 mg dose”, the “steady state concentration (Css) versus dose” value is “no further increase in Css is observed”. Moreover, where the note is “in vivo”, the half life result is recorded as “approximately 5.8 days” and the “time to peak plasma concentration” value is listed as “about 31 hours”.
